For one series, the target named is HDAC3/NcoR2 (Homo sapiens, UniProt O15379). As to the kind of experiment: HDAC enzyme inhibition assay (Fluor-de-Lys), HDAC3. The conditions noted are these: for selectivity for HDAC3 over HDAC1: ratio of IC50 values HDAC1/HDAC3.
For series [1], the system named is GM15850 cells (FRDA lymphoblastoid cell line). As to the kind of experiment: In-cell deacetylase inhibition assay (DAC assay). Type of series: cell-based, human. The conditions noted are these: 4 h incubation. An excerpt: Compound dilutions were made in 100% DMSO followed by parallel dilution in media with 2% DMSO. […] The final concentration of DMSO in each well was 0.2%.

The next series addresses recombinant HDAC2 (Homo sapiens, UniProt Q92769). Put plainly: HDAC enzyme inhibition assay (Fluor-de-Lys), HDAC2.
The nature of series [2]: Brain penetration in mouse. The conditions noted are these: brain and plasma. In kind it is in vivo.
Series [3] in a line: Cytotoxicity, antiproliferation assay. In kind it is cell-based. The conditions noted are these: human, Hct116 cells.
The subject of the next series is Hct116 cells. As to the kind of experiment: Cytotoxicity, antiproliferation assay. In kind it is cell-based. The conditions noted are these: for ratio cytotoxicity/DAC: Hct116 antiproliferation IC50 / in-cell DAC IC50.
Series [4] in a line: Acid stability determination. The conditions noted are these: pH = 2, 50 °C; for half-life at 100 µM: 0.01 M HCl in deionized water, read-out: t1/2 in acidic conditions (converted). In kind it is physicochemical. The protocol: Immediately after mixing, an aliquot (100 μL) was sampled and analyzed by HPLC/UV. The area under the compound peak was determined and used as the time zero reference point. […] These were analyzed by the same HPLC/UV method and the area of the peak corresponding to the test compound was measured. Percent remaining at a given time point was then calculated as the ratio of the area under the peak after incubation to that at time zero times 100.

The target of the next series is recombinant HDAC1 (Homo sapiens, UniProt Q13547). As to the kind of experiment: HDAC enzyme inhibition assay (Fluor-de-Lys), HDAC1.
Series [5] deals with FXN gene transcription in primary lymphocytes from a FRDA patient. Put plainly: Frataxin mRNA assay (quantitative RT-PCR). The conditions noted are these: 10 μM compound, 48 h, primary lymphocytes from FRDA patient donor blood, normalized to DMSO control. Type of series: cell-based, human. The protocol:
In general, the activity of a compound against HDAC3 is related to its ability to increase FXN gene transcription. Compounds click-1 and -2 were assayed for their ability to increase transcription of the FXN gene in primary lymphocytes from a FRDA patient, as previously described.
Quantitative RT-PCR was used to estimate FXN mRNA levels after treatment with 10 μM compound for 48 h, and values were normalized to the level of FXN mRNA observed for a DMSO vehicle control.
Figure 3 Click-derived HDAC inhibitors induce frataxin gene expression in primary lymphocytes isolated from FRDA patient donor blood samples, compared to a standard pimelic o-aminobenzamide (109). Concentration of each compound is 10 μM.

Series [6] in a line: Compound stability (method not described). Type of series: physicochemical. The conditions noted are these: conditions not stated. An excerpt:
All three azides 5, 8 and 16 were subjected to click chemistry with common intermediate 3 to give the corresponding triazole products click-1, click-2 and click-3 (Scheme 5). Each compound was characterized by ^1H-, ^13C-NMR and mass spectrometry.

Another series in a line: in vivo. The conditions noted are these: rat, 5 mg/kg.

pIC50: −log10 of the molar value.

Sequence of HDAC3/NcoR2 (O15379 whole entry): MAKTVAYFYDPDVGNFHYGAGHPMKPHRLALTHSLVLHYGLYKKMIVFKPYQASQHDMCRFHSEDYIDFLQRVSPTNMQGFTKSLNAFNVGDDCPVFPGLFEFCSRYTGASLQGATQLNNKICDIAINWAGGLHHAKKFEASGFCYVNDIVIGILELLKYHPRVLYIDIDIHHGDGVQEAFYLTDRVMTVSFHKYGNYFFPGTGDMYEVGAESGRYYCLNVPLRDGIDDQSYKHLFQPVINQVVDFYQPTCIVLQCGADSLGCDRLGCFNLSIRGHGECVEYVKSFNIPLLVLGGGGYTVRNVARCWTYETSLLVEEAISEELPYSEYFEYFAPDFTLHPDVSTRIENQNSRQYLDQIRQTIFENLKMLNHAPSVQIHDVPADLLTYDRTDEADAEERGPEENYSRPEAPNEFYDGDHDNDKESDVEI
Sequence of HDAC3/NcoR2 (Q9Y618 395-489 partner limits assumed): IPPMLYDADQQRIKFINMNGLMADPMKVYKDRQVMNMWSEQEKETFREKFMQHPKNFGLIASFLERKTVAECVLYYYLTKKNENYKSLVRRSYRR
Sequence of recombinant HDAC1 (Q13547 whole entry): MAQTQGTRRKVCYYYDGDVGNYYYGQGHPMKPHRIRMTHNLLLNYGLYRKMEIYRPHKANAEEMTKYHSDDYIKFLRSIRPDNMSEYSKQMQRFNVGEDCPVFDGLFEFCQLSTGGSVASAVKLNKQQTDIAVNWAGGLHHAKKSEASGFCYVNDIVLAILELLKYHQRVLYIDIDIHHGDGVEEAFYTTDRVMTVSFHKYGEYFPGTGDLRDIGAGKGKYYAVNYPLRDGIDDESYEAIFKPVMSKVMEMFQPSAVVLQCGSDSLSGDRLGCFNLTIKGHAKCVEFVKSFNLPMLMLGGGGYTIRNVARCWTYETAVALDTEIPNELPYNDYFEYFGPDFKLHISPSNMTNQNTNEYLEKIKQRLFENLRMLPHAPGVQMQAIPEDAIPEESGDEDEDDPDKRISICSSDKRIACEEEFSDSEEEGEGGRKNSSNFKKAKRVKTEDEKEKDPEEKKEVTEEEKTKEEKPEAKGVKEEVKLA
Sequence of recombinant HDAC2 (Q92769 whole entry): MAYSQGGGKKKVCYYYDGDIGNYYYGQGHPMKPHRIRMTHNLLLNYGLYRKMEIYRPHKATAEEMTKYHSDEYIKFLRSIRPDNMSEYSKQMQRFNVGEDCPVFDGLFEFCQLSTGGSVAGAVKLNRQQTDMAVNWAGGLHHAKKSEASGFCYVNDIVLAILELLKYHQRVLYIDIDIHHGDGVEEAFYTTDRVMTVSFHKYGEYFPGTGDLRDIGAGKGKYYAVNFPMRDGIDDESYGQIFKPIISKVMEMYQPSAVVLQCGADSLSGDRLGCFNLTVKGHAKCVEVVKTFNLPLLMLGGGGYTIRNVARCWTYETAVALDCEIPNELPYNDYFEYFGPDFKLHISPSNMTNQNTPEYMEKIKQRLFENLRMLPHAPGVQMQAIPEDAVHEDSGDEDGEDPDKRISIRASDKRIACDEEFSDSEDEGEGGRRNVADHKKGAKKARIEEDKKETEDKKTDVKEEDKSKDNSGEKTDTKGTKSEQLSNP

As a reminder, the pIC50 is −log10 of the IC50, conventionally taken in molar units. For orientation: Kp means the ratio of the level in a tissue or fluid to that in plasma or blood. Consider `Nc1ccccc1NC(=O)/C=C/c1cn(C/C=C/c2ccc3cc[nH]c3c2)nn1` [Click-2, (E)-3-(1-((E)-3-(1H-Indol-6-yl)allyl)-1H-1,2,3-triazol-4-yl)-N-(2-aminophenyl)acrylamide], for which the pIC50 was 7.41 against HDAC3/NcoR2; 5.29 in series [1] (Homo sapiens); 6.33 on recombinant HDAC2; 4.57 in series [3]; 7.34 on recombinant HDAC1. Besides, the “selectivity for HDAC3 over HDAC1” value on HDAC3/NcoR2 is 1.2 fold. In [2], this compound came in with a Kp of 0.03. Moreover, in the series on Hct116 cells, the “ratio cytotoxicity/DAC” value worked out at 5.3. Besides, the half-life at 100 µM in series [4] was 1440 min. The “improvement of acid half-life relative to HDACi 109” value in [4] worked out at 4 fold. Besides, the “promoting transcription of the silenced FXN gene (FXN mRNA)” value in [5] was “highly active”.
`Nc1ccccc1NC(=O)/C=C/c1cn(CCOc2ccc3cc[nH]c3c2)nn1` [Click-3, (E)-3-(1-(2-((1H-Indol-6-yl)oxy)ethyl)-1H-1,2,3-triazol-4-yl)-N-(2-aminophenyl)acrylamide] had a pIC50 in series [1] (Homo sapiens) of 4.53. The stability result in [6] is “poor stability”.
Usually Cmax stands for the peak of the concentration-time curve. As usually defined, the Tmax is the time from dosing to the highest level. In the series “in vivo” (brain and plasma, intravenous), `Nc1ccccc1NC(=O)/C=C/c1cn(CC=Cc2ccccc2)nn1` [Click-1, (E)-N-(2-Aminophenyl)-3-(1-cinnamyl-1H-1,2,3-triazol-4-yl)acrylamide] displayed a Kp of 0.33. In the series “in vivo” (brain, iv), this compound showed a Cmax of 800 ng/g. Besides, in the series “in vivo” (brain, iv), the Tmax is 5 min. In addition, the pIC50 at HDAC3/NcoR2 is 7.55; in [1] (Homo sapiens), 5.25; on recombinant HDAC2, 6.32; in [3], 4.64; at recombinant HDAC1, 7.18. Besides, the “selectivity for HDAC3 over HDAC1” value on HDAC3/NcoR2 turned out to be 2.4 fold. Moreover, the “ratio cytotoxicity/DAC” value in the series with Hct116 cells worked out at 4.1. Also, the half-life at 100 µM in series [4] was 1980 min. Besides, the “improvement of acid half-life relative to HDACi 109” value in series [4] was 5.5 fold. Moreover, the “promoting transcription of the silenced FXN gene (FXN mRNA)” value in series [5] is “highly active”.
Turning to `Nc1ccccc1NC(=O)c1ccc(CNC(=O)OCc2cccnc2)cc1` [MS-275, reference compound], the pIC50 in series [1] is 5.72; in the series on Hct116 cells (Hct116 cells), 6.00.
Turning to `Cc1ccc(C(=O)NCCCCCC(=O)Nc2ccccc2N)cc1` [compound 109], the half-life at 100 µM in [4] is 360 min.
